Test results published in US6846636B1, “Methods and compositions for HDL holoparticle uptake receptor” (American National Red Cross, priority 1998, dated 2005).
“Also recorded” adds a separate entry of the source.

B1: ovalbumin: control protein (protein, UniProt P01012 2-386, looked up)
Ovalbumin: GSIGAASMEFCFDVFKELKVHHANENIFYCPIAIMSALAMVYLGAKDSTRTQINKVVRFDKLPGFGDSIEAQCGTSVNVHSSLRDILNQITKPNDVYSFSLASRLYAEERYPILPEYLQCVKELYRGGLEPINFQTAADQARELINSWVESQTNGIIRNVLQPSSVDSQTAMVLVNAIVFKGLWEKAFKDEDTQAMPFRVTEQESKPVQMMYQIGLFRVASMASEKMKILELPFASGTMSMLVLLPDEVSGLEQLESIINFEKLTEWTSSNVMEERKIKVYLPRMKMEEKYNLTSVLMAMGITDVFSSSANLSGISSAESLKISQAVHAAHAEINEAGREVVGSAEAGVDAASVSEEFRADHPFLFCIKHIATNAVLFFGRCVSP

Experiments:
[1] = test system: RA/Bt2cAMP-treated F9 cells; assay: [125I]-HDL internalization and degradation assay; assay type: cell-based, mouse; details: [125I]-HDL 2 μg/ml, 6.5 h at 37° C.; unlabeled HDL 80 μg/ml, RAP 1 μM, chloroquine 50 μM, anti-cubilin IgG 150 μg/ml
Experimental: HDL internalization and degradation assays were performed in a manner similar to LDL and apolipoprotein J internalization and degradation assays described previously (Stefansson et al., 1995; Kounnas et al., 1995). ApoE-free HDL (HDL3) was labeled with [^125I]-iodine using the iodine monochloride method (Goldstein et al., 1983). RA/Bt2cAMP-treated and -untreated F9 cells were seeded onto gelatin-coated 3.83 cm^2 wells (Corning, Corning, N.Y.) at 1.5-1.75×10^5 cells/well and allowed to grow for 18 h at 37° C., 5% CO2. Prior to the addition of [^125I]-HDL, the cells were washed with serum-free DMEM and incubated in the assay medium (DMEM, 20 mM HEPES, ITS, penicillin/streptomycin, and 1.5% BSA) containing unlabeled HDL3 (80 μg/ml), RAP (1 μM), chloroquine (50 μM) (Sigma) or BSA (10 μM) and incubated for 0.5 hours at 37° C., 5% CO2. The medium was then removed and [^125I]-HDL3 (2 μg/ml) in serum-free medium or in serum-free medium containing unlabeled HDL3 (80 μg/ml), RAP (1 μM), chloroquine (50 μM) or BSA (10 μM) was added and incubated with the cells for 6.5 h at 37° C., 5% CO2. The conditioned culture medium was treated with trichloroacetic acid (final concentration 10%) and centrifuged at 10,000×g for 10 min. The amount of radioactivity present in the supernatant was taken to represent the amount of degraded HDL (Goldstein and Brown, 1974). […] The released cells were pelleted by centrifugation at 1,000×g for 15 min and the amount of radioactivity in the cell pellet measured.
HDL internalization and degradation assays were performed as described previously for LDL and apolipoprotein J (Hammad et al., 1997; Kounnas et al., 1995; Stefansson et al., 1995a). […] The amount of radioactivity in the supernatant was taken to represent the amount of degraded HDL (Goldstein and Brown, 1974). […] The released cells were pelleted by centrifugation at 1,000×g for 15 min and the amount of radioactivity in the cell pellet was measured and taken to represent the amount of internalized HDL.

[2] = test system: RA/Bt2cAMP-treated F9 cells; assay: DiI-HDL uptake by fluorescence-activated cell (FAC) scanning; assay type: cell-based, mouse; details: DiI-HDL 1 μg/ml, 37° C., competitors preincubated, apolipoproteins and RAP 1 μM, apoE 0.25 μM, heparin 80 μM, IgGs 200 μg/ml, heparinase I 10 U/ml
Experimental: Untreated and RA/Bt2cAMP-treated F9 cells (1-1.5×10^5 cells/cm^2) were grown for 18 hours in serum-free medium (DMEM, ITS, penicillin, and streptomycin). After washing the cell layers with the same serum-free medium, apoE-free DiI-HDL was added to a final concentration of 1 μg/ml and incubated for 1-2 hours at 37° C., 5% CO2. For competition experiments, competitors were added in serum-free medium and incubated for 0.5 hours at 37° C., 5% CO2 prior to the addition of the DiI-HDL. After the incubation, the medium was removed, cell layers washed with serum-free medium and the cells released with a 0.5 mg/ml trypsin-0.53 mM EDTA solution (Mediatech). The cells were then pelleted by centrifugation at 180×g and resuspended in DMEM. Twice more, the cells were pelleted by centrifugation at 180×g, and resuspended in dPBS. The cells were then subjected to FAC sorting on a FACStarplus instrument (Becton Dickinson, San Jose, Calif.).
RA/Bt2cAMP-treated and -untreated F9 cells (1-1.5×10^5 cclls/cm^2) were grown for 18 h in SFM. After washing the cell layers with SFM, DiI-HDL or DIO-LDL was added to a final concentration of 1 μg/ml and incubated for 2 h at 37° C., 5% CO2. For competition experiments, competitors (HDL, HDL2, HDL3 and their corresponding apoE-free forms), LDL, oxidized LDL, VLDL, §-VLDL, Lp(a) ([…]), apoA-I (28.3 μg/ml, 1 μM), apoA-II (I 7.3 μg/ml, 1 μM), apoC-I (6.6 μg/ml, 1 μM), apoC-III (8.8 μg/ml, 1 μM), apoJ (70 μg/ml, 1 μM), ovalbumin (45 μg/ml, 1 μM), RAP (39 μg/ml, 1 μM), apoE (8.5 μg/ml, 0.25 μM), heparin (80 μM, 250 U/ml) or IgGs (200 μg/ml) were added in SFM and incubated for 45 min at 37° C., 5% CO2 prior to the addition of the fluorescent lipoproteins. After the incubation, the medium was removed, cell layers were washed with SFM and the cells were released with trypsin-EDTA-proteinase K. The cells were washed once with DMEM, twice with dPBS, then subjected to FAC scanning on a FACStar Plus instrument (Becton Dickinson, San Jose, Calif.). Plotted data are from gated cells having fluorescence intensity values greater than the autofluorescence values of 99% of unlabeled cells. For some experiments, cell layers were treated with hepaninase I (10 U/ml) for 2 h prior to the addition of the DiI-HDL.

[3] = test system: RA/Bt2cAMP-treated F9 cells; assay: Cell layer-associated [35S]-sulfate after heparinase I treatment; assay type: cell-based, mouse; details: heparinase I 10 U/ml for 2 h; relative to controls
[4] = test system: visceral yolk sac endoderm; assay: DiI-HDL uptake by mouse embryo yolk sac (ex utero culture, confocal microscopy); details: ± S.D.; DiI-HDL 1 μg/ml 1 h; RAP, ovalbumin 1 μM; IgGs 400 μg/ml; p<0.01 vs control
Experimental: Embryos (8-8.5 days post-conception) were removed from timed pregnant ICR mice (Harlan Sprague Dawley, Inc.) so as to leave visceral yolk sac endoderm intact and placed in DMEM. The embryos were then incubated in DMEM containing RAP (1 μM), ovalbumin (1 μM), rabbit anti-cubilin IgG (400 μg/ml) or normal rabbit IgG (400 μg/ml) for 0.5 h at 37° C., 5% CO2. DiI-HDL was added to a final concentration of (1 μg/ml) and incubated for 1 h at 37° C., 5% CO2. The medium was removed and the embryos gently washed with dPBS and fixed with 3% paraformaldehyde for 15 min. The fixed embryos were placed in dPBS, 0.1% azide in a well slide and examined by laser scanning confocal microscopy. The intensity of yolk sac fluorescence in mouse embryos incubated with DiI-HDL in the presence of either RAP, ovalbumin, anti-cubilin IgG or control IgG was evaluated by seven people in a double blinded fashion. The assessments of relative intensity were analyzed by a nonparametric statistical test using RANK and ANOVA procedures (SAS Institute, Inc., Cary, N.C.).

Molecule | DiI-HDL uptake in presence of competitor [2] | also measured
CCN(CC)CCCC(C)Nc1ccnc2cc(Cl)ccc12 (centres unmarked) [chloroquine, reference compound] |  | degradation of [125I]-HDL [1]: effectively block the degradation
ApoAII: Human apolipoprotein, major apolipoprotein component of HDL | inhibit HDL uptake | DiI-HDL uptake in presence of competitor ([2]; listed as apoA-E): competed effectively
ApoE2: apolipoprotein component of HDL | inhibit HDL uptake | 
Aprotinin [reference compound] | inability of these ligands to block HDL uptake | 
Fucoidan [reference compound] | inability of these ligands to block HDL uptake | 
apoA-I: Human apolipoprotein, major apolipoprotein component of HDL | competed effectively | DiI-HDL uptake in presence of competitor ([2]; listed as ApoAI): inhibit HDL uptake
apoC-1: Human apolipoprotein (TPDVSSALDKLKEFGNTLEDKARELISRIKQSELSAKMREWFSETFQKVKEKLKIDS; UniProt P02654 27-83, looked up) | little or no ability to compete | 
apoC-III: Human apolipoprotein | little or no ability to compete | 
apoE: Human apoE3 purchased from Calbiochem | competed effectively | 
apoj: apolipoprotein J from Quidel | little or no ability to compete | 
heparin [reference compound] | Neither heparin nor heparinase I pretreatment of RA/Bt2cAMP-differentiated F9 cells inhibited DiI-HDL uptake; also recorded: did not block HDL uptake | 
heparinase I [reference compound] | Neither heparin nor heparinase I pretreatment of RA/Bt2cAMP-differentiated F9 cells inhibited DiI-HDL uptake | DiI-HDL uptake in presence of competitor ([2]; listed as heparinase): did not block HDL uptake; reduction of cell layer-associated [35S]-sulfate [3]: 50%
B1 |  | fluorescence intensity RANK score of DiI-HDL incorporation into extraembryonic endoderm [4]: 4.16±0.15
